From patent US20240016933A1, “Methods of Anchoring or Reconstituting Active Molecules on Metabolically Labeled Cells” (The General Hospital Corporation, priority 2020, published 2024)

Experiments:
Format in all cases: cell-based
HeLa cells [1] = assay: Surface azide labeling of HeLa cells with AzNAM, DBCO-FAM fluorescence read in plate reader; conditions: AzNAM 10-125 μM for 20 hours, then 10 μM DBCO-FAM for 1 hour
Method: Initially, cells were cultured in a suitable culture vessel such that their level of confluency at the time of addition of the azide-modified sugar, AzNAM, was not more than 80%.
In particular, HeLa cells were plated in 6-well plates (2.5×10^4 cells/well) and incubated for 48 hours in DMEM-10% FBS medium in a standard 5% CO2 atmosphere. Medium from each well was removed, and each well was washed with 2 ml of phosphate buffered saline (PBS), and fresh DMEM-FBS (1 ml) added. Subsequently, varying amounts of AzNAM (solubilized in DMSO) were added to the wells in small (10 μl) volumes to produce the desired final concentrations in the range 10-125 μM. After an additional 20 hours incubation, the medium in each well was removed, and the wells were washed with 2 ml of PBS, followed by addition of 1 ml of PBS. Then, a fluorescent azide reactive molecule, DBCO-FAM (Broadpharm), was directly added to each well to produce a final concentration of 10 μM.
Plates with added DBCO-FAM were protected from bright light and incubated for 1 hour at room temperature. Supernatants in each well were removed, and each well was washed twice with 2 ml of PBS. […] After pelleting and washing in PBS, cells were resuspended in 150 μl of PBS and counted. Defined numbers in 50 μl volumes in a 96-well Blackwell plate (Corning) were assayed for fluorescence in a fluorescent plate reader (Tecan).

HeLa cells [2] = assay: Surface azide labeling of HeLa cells with AzNAM, DBCO-FAM fluorescence by flow cytometry; conditions: AzNAM 125 μM for 20 hours, versus cells receiving no azide-modified sugar
Method: In separate cultures, HeLa cells were added to wells of a 12-well plate at 10,000 cells/well, and cultured for 72 hours under normal conditions. The wells were washed with 1 ml of PBS, and 0.5 ml of DMEM-10% FBS was added. AzNAM was added to a final concentration of 125 μM, with cells receiving no azide-modified sugar as controls. After 20 hours, cells were harvested with CellStripper (250 μl/well), washed with PBS, and subjected to flow analysis.

HeLa cells [3] = assay: Placement of trastuzumab mimotope on azide-modified cells, flow analysis; conditions: AzNAM 100 μM for 24 hours
Method: (§1) Jurkat and HeLa cells were cultured for three days in their optimal media (RPMI-10% FBS/DMEM-10% FBS, respectively) in 6-well plates to reach a state of sub-confluency. AzNAM (from 100 mM DMSO stock) was added to designated wells to a […] of 100 μM. Control wells received equal volumes of DMSO only. After 24 hours, cells were harvested (directly for the non-adherent Jurkat cells, and with Cell Stripper reagent for HeLa cells), and washed in PBS. […] Cells treated with the DBCO-Jmim peptide were then subjected to standard staining with Trastuzumab (BioVision), followed by secondary staining with FITC-conjugated goat-anti-human kappa chain antibody. During the staining procedure, the control washed DBCO-FAM treated cells were kept on ice. Finally, all cells were subjected to flow cytometric analysis.

Jurkat cells = assay: as above; conditions: AzNAM 100 μM for 24 hours
Method: as §1

[4] = then 10 μM DBCO-Jmim for 1 hour, trastuzumab plus FITC goat-anti-human kappa, versus DMSO controls

## azido-N-acetylmannosamine [AzNAM]
HeLa cells [1]
  cell-associated fluorescence (96-well plate format): cell-associated fluorescence increased as a function of the levels of AzNAM
HeLa cells [2]
  flow analysis peak shift (DBCO-FAM fluorescence): marked and well-demarcated peak shifts
HeLa cells [3]; then 10 μM DBCO-FAM for 1 hour
  fluorescence after metabolic labeling and DBCO-FAM treatment (flow analysis): positive fluorescence
HeLa cells [3]; [4]
  staining with trastuzumab (flow analysis): strong staining with trastuzumab
Jurkat cells; then 10 μM DBCO-FAM for 1 hour
  fluorescence after metabolic labeling and DBCO-FAM treatment (flow analysis): positive fluorescence
Jurkat cells; [4]
  staining with trastuzumab (flow analysis): strong staining with trastuzumab
